Laboratory results as given in patent US7138543B2, “Thiolalkyl benzoic acid derivatives” (Guilford Pharmaceuticals Inc., priority 2001, dated 2006).

Columns and labels:
TGF-β1 [1] = test: Effect on TGF-β1 in in vitro ischemia model; format: cell-based; conditions: ischemic cell cultures, FIG. 1
Protocol: (§1) Effect of NAALADase Inhibition on TGF-β in In vitro Ischemia Model Compound C was added to ischemia cell cultures to determine its effect on TGF-β levels during stroke.

TGF-β2 = test: Effect on TGF-β2 in in vitro ischemia model; format: cell-based; conditions: ischemic cell cultures, FIG. 2
Protocol: as §1

ischemic cell cultures = test: Neuroprotective effect with growth factor neutralizing antibodies in in vitro ischemia model; format: cell-based
Protocol: TGF-β neutralizing antibodies were then added to the ischemic cell cultures.

TGF-β1 [2] = test: TGF-β1 levels by microdialysis in MCAO rats; format: in vivo; conditions: during occlusion and reperfusion, FIG. 6
[3] = system: rats subjected to middle cerebral artery occlusion; test: Neuroprotective effect with TGF-β neutralizing antibodies in MCAO rats; format: in vivo; conditions: FIG. 5
From the text: The effect of TGF-β neutralizing antibodies on the neuroprotective effect of Compound C was also studied in rats following MCAO.
One of ordinary skill in the art can appreciate that the regulation of TGF-β's by NAALADase inhibitors may have implications not only in stroke, but also in other diseases, disorders and conditions including, without limitation, neurological diseases, psychiatric diseases, demyelinating diseases, prostate cancer, inflammation, diabetes and angiogenesis.

[4] = system: chronic constrictive injury-induced rats; test: Neuropathic pain in CCI model (sciatic nerve ligation); format: in vivo
Protocol: In vivo Assay of NAALADase Inhibitors on Neuropathic Pain in CCI Model
Sciatic nerve ligation, consisting of 4 ligatures tied loosely around the sciatic nerve at 1 mm intervals proximal to the nerve trifurcation, was performed on rats. […] The rats were habituated to a Hargreaves apparatus. An infrared heat source was directed onto the dorsal surface of each rat's hindpaws and the time taken for the rat to withdraw its paws was noted. The difference in scores between the latency of the response for the paw on the operated side versus the paw on the unoperated control side was determined.

O=C(O)CCC(CP(=O)(O)O)C(=O)O (centres unmarked) [Compound C, 2-(phosphonomethyl)pentanedioic acid]
TGF-β1 concentration (TGF-β1 [1]): increased concentration | TGF-β2 concentration (TGF-β2): increased concentration | neuroprotective effect in presence of TGF-β neutralizing antibodies (ischemic cell cultures; FIG. 3): blocked the neuroprotective effect | neuroprotective effect in presence of FGF antibody (ischemic cell cultures; FIG. 4): did not block the neuroprotective effect | TGF-β1 levels (TGF-β1 [2]): significant rise in TGF-β1 levels | neuroprotective effect in presence of TGF-β neutralizing antibodies [3]: significantly attenuated the neuroprotective effect | withdrawal latency difference scores between operated and unoperated paws ([4]; 50 mg/kg i.p. daily starting 10 days post surgery, FIG. 8): dramatically normalized the difference scores | start of significant effect on difference scores ([4]; 50 mg/kg i.p. daily, persisted to end of study (21 days of daily dosing)): 11 days of drug treatment
